Counter-ions that a name gives are not always drawn. Like-named read-outs stand apart in the source and are kept apart here.
Key:
[1] = system: RSV (Group A, Long Strain); assay: Cytopathetic effect (CPE) protection antiviral assay, MTT readout; type: cell-based; details: human respiratory syncytial virus, HEp-2, 96 h, read-out: RSV EC50
Experimental: HEp-2 cells and RSV (Group A, Long Strain) were obtained from the American Type Culture Collection (Manassas, Va.).
A cytopathetic effect (CPE) protection assay was performed to determine the ability of a compound to protect the cells from viral infection and thus the CPE induced by viral infection. 96-Well plates were first seeded with […] per well in Dulbecco's modified Eagle's medium (DMEM) containing 10% fetal bovine serum (FBS). One day after the cells were seeded, they were preincubated with serial dilutions of compounds prepared in 100 μL assay medium (DMEM mixed with F12 medium at a 1:1 ratio, supplemented with 2% FBS and 1 mM sodium pyruvate) for 1 hour at 37° C. 100 μL of assay medium containing 0.2 multiplicity of infection (MOI) of RSV was then added to each well of cells. In addition to wells containing infected cells incubated with compounds, each plate also contained replicates of two kinds of controls: (1) Virus control contained cells infected with 0.2 MOI of RSV in assay medium, (2) Uninfected cell control contained cells incubated with assay medium only. After 4 days of incubation at 37° C., the viability of cells was assessed using MTT (Thiazolyl blue tetrazolium bromide, Sigma). A stock solution of MTT, at a concentration of 4 mg/mL in phosphate-buffered saline, was added to all wells at 25 μL per well. Plates were further incubated for 4 hours, and each well was then treated with 50 μL of a solution containing 20% sodium dodecyl sulfate (SDS) and 0.02 N HCl. After an overnight incubation, the plates were measured on a BioTek® microtiter plate reader at wavelengths of 570 nm and 650 nm. The MTT detection is based on the fact that viable (uninfected) cells can reduce the tetrazolium salts into colored formazan products, which can then be quantitated by spectrometry. Based on the spectrometric absorbance of each sample, the percent of protection from CPE, which is an indicator of protection from viral infection, can be calculated for each compound and the 50% effective concentrations (EC50) can be calculated using a nonlinear regression curve fitting equation provided by the GraphPad Prism® 4 software.
Compounds were tested to determine both their antiviral and toxicity to determine their therapeutic window. Determination of the EC50 and TD50 of these active compounds were repeated one additional time to confirm the window.

HEp-2 cells = assay: Cytotoxicity assay (MTT) run in parallel with the antiviral assay; type: cell-based; details: uninfected HEp-2 cells, 4 days incubation, 50% toxicity dose
Experimental: HEp-2 cells and RSV (Group A, Long Strain) were obtained from the American Type Culture Collection (Manassas, Va.). Cytotoxicity of the compounds was determined in experiments done in parallel with the antiviral assays. To do this, 100 μL of assay medium was added to the wells of HEp-2 cells pretreated with 100 μL serially diluted compounds as described above. After 4 days of incubation, the viability of the cells was determined by the MT assay in the same way as detailed in the “Antiviral Assay” method. Results were expressed as 50% toxicity dose (TD50) values. Compounds were tested to determine both their antiviral and toxicity to determine their therapeutic window. Determination of the EC50 and TD50 of these active compounds were repeated one additional time to confirm the window.

[2] = HEp-2 cells, 0.2 MOI RSV, 4 days incubation, protection from CPE (Table 1)
[3] = HEp-2 cells, 0.2 MOI RSV, 4 days, Table 2, determination repeated to confirm window

Row | Structure (SMILES) | EC50 [1, 2] [nM] | EC50 [1, 3] [nM] | MTT TD50 (HEp-2 cells) [µM] | EC50 [1] [nM]
1 | Cc1ccccc1N/C(=N/C#N)N1CCN(c2nccnc2C#N)CC1C(C)C (centres unmarked) [Example 1.1, N′-cyano-4-(3-cyanopyrazin-2-yl)-2-isopropyl-N-(2-methylphenyl)piperazine-1-carboximidamide] | 890 | 890 | >100 | –
2 | COC(=O)c1cnc(N2CCN(/C(=N\C#N)Nc3ccccc3Cl)C(C(C)C)C2)cn1 (centres unmarked) [Example 1.2, methyl 5-{4-[N-(2-chlorophenyl)-N′-cyanocarbamimidoyl]-3-isopropylpiperazin-1-yl}pyrazine-2-carboxylate] | 1130 | 1130 | >100 | –
3 | Cc1ccccc1N/C(=N/C#N)N1CCN(c2cnc3ccccc3n2)CC1C(C)C (centres unmarked) [Example 1.3, N′-cyano-2-isopropyl-N-(2-methylphenyl)-4-(quinoxalin-2-yl)piperazine-1-carboximidamide trifluoroacetate] | – | – | >32 | 250
4 | Cc1ccccc1N/C(=N/C#N)N1CCN(c2nc3ccccc3o2)CC1C(C)C (centres unmarked) [Example 1.4, 4-(1,3-benzoxazol-2-yl)-N′-cyano-2-isopropyl-N-(2-methylphenyl)piperazine-1-carboximidamide] | 1140 | 1140 | 28.85 | –
5 | Cc1ccccc1N/C(=N/C#N)N1CCN(c2nc3cccc(Cl)c3o2)CC1C(C)C (centres unmarked) [Example 1.5, 4-(7-chloro-1,3-benzoxazol-2-yl)-N′-cyano-2-isopropyl-N-(2-methylphenyl)piperazine-1-carboximidamide] | 810 | 810 | >10 | –
6 | Cc1ccccc1N/C(=N/C#N)N1CCN(c2nc3ccccc3s2)CC1C(C)C (centres unmarked) [Example 1.6, 4-(1,3-benzothiazol-2-yl)-N′-cyano-2-isopropyl-N-(2-methylphenyl)piperazine-1-carboximidamide] | 1590 | 1870 | >10 | –
7 | Cc1ccc2oc(N3CCN(/C(=N\C#N)Nc4ccccc4C)C(C(C)C)C3)nc2c1 (centres unmarked) [Example 1.7, N′-cyano-2-isopropyl-4-(5-methyl-1,3-benzoxazol-2-yl)-N-(2-methylphenyl)piperazine-1-carboximidamide] | 830 | 830 | >10 | –
8 | Cc1ccccc1N/C(=N/C#N)N1CCN(c2ncnc3ccccc23)CC1C(C)C (centres unmarked) [Example 1.8, N′-cyano-2-isopropyl-N-(2-methylphenyl)-4-(quinazolin-4-yl)piperazine-1-carboximidamide] | 450 | 300 | >100 | –
9 | Cc1ccccc1N/C(=N/C#N)N1CCN(c2nc3ccccc3[nH]2)CC1C(C)C (centres unmarked) [Example 1.9, 4-(1H-benzimidazol-2-yl)-N′-cyano-2-isopropyl-N-(2-methylphenyl)piperazine-1-carboximidamide] | 4090 | 4090 | >100 | –
10 | Cc1ccccc1N/C(=N/C#N)N1CCN(c2nc3ccccc3c(=O)[nH]2)CC1C(C)C (centres unmarked) [Example 1.10, N′-cyano-2-isopropyl-N-(2-methylphenyl)-4-(4-oxo-3,4-dihydroquinazolin-2-yl)piperazine-1-carboximidamide] | 430 | 430 | >100 | –
11 | Cc1ccccc1N/C(=N/C#N)N1CCN(c2ncnc3[nH]ccc23)CC1C(C)C (centres unmarked) [Example 1.11, N′-cyano-2-isopropyl-N-(2-methylphenyl)-4-(7H-pyrrolo[2,3-d]pyrimidin-4-yl)piperazine-1-carboximidamide] | 1410 | 1910 | >100 | –
12 | Cc1ccccc1N/C(=N/C#N)N1CCN(c2cnc3ccccc3n2)C[C@@H]1C(C)C [Example 1.13, (2S)—N′-cyano-2-isopropyl-N-(2-methylphenyl)-4-(quinoxalin-2-yl)piperazine-1-carboximidamide trifluoroacetate] | – | – | >38.6 | 200
13 | CC(C)C1CN(c2cnc3ccccc3n2)CCN1/C(=N\C#N)Nc1ccccc1Cl (centres unmarked) [Example 1.19, N-(2-chlorophenyl)-N′-cyano-2-isopropyl-4-(quinoxalin-2-yl)piperazine-1-carboximidamide] | 150 | 150 | >27.49 | –
14 | CCC1CN(c2cnc3ccccc3n2)CCN1/C(=N\C#N)Nc1ccccc1C (centres unmarked) [Example 1.44, N′-cyano-2-ethyl-N-(2-methylphenyl)-4-(quinoxalin-2-yl)piperazine-1-carboximidamide] | 120 | 120 | 42.06 | –
15 | Cc1ccccc1N/C(=N/C#N)N1CCN(c2cnc3cc(F)ccc3n2)CC1C(C)C (centres unmarked) [Example 1.54, N′-cyano-4-(6-fluoroquinoxalin-2-yl)-2-isopropyl-N-(2-methylphenyl)piperazine-1-carboximidamide] | 260 | 260 | >29.31 | –
16 | Cc1ccccc1NC(=NC#N)N1CCN(c2cnc3ccccc3n2)CCC1C(C)C (centres unmarked) [Example 3.1, N′-cyano-7-isopropyl-N-(2-methylphenyl)-4-(quinoxalin-2-yl)-1,4-diazepane-1-carboximidamide] | – | – | – | > 32000
